Data: patent US20210113492A1, “METHOD FOR INHIBITING PROLIFERATION AND METASTASIS OF CANCER CELLS BY USING NAPHTHOQUINONE DERIVATIVE” (National Tsing Hua University, priority 2019, published 2021)

Key:
NQO1 = molecular target: T1, NQO1 (Homo sapiens, UniProt P15559); test: NQO1 enzymatic activity assay (substrate reduction with NADH and WST1); type: biochemical; settings: cytosolic fractions of OC3-IV2 cells; isoplumbagin 5 μM and 10 μM, menadione 1X and 2X
T1 construct: endogenous in cells; host or cells: OC3-IV2 (human oral squamous cell carcinoma), cytosolic fraction / lysate supernatant
T1 sequence (P15559 whole entry): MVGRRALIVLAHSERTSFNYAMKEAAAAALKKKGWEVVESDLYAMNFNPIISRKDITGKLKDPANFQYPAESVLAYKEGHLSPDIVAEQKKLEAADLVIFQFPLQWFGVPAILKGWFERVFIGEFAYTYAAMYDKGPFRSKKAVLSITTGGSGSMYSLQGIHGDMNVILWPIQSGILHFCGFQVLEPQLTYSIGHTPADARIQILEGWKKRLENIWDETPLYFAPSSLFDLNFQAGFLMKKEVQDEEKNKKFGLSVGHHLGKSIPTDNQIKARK
Protocol: FIG. 4 proves that isoplumbagin is a substrate of NQO1. The cytosolic fractions of OC3-IV2 cells were used for the NQO1 enzymatic activity assay. The NQO1 enzyme activity was calculated by measuring the simultaneous reduction of menadione or isoplumbagin with cofactor NADH and WST1 (a highly sensitive tetrazolium reagent) which leads to increased absorbance at 450 nm. NQO1 activity assay kit (#ab184867) was purchased from Abcam (Cambridge, Mass., USA). OC3-IV2 cells were lysed with 1X extraction buffer containing 1 mM phenylmethylsulfonyl fluoride (PMSF) for 15 min on ice, and then centrifuged at 17,000×g at 4° C. for 20 min. The supernatant was collected and then the protein concentration of each sample was determined by BCA assays (Santa Cruz Biotechnology). Diluted sample and reaction buffer were added into 96-wells plate containing menadione (1X and 2X) or different concentrations of isoplumbagin (5 μM and 10 μM) with cofactor NADH and WST1. The absorbance of reduced WST1 was measured at 450 nm wavelengths by a spectrophotometer. Data from three independent experiments are presented as mean ±SEM (*P<0.05 compared with no substrate, paired Student's t-test).

[1] = tested on: oral squamous cell carcinoma cells (OC3-IV2); test: Oxygen consumption rate in intact cells (O2k Oxygraph); type: cell-based, human; settings: 2.5 μM, one independent experiment
Protocol: Oxygen consumption rate (OCR) in intact cells suspension was measured by O2k Oxygraph (Oroboros Instruments). DMSO or 2.5 μM isoplumbagin treated cells were detached from the plate by trypsinization and suspended at 5×10^5 cells/ml in DMEM/KSFM medium supplemented with 10% FBS into the O2k chambers. Oxygen consumption rate of DMSO or isoplumbagin treated cells samples were measured by adding 0.5 μM oligomycin, 0.5 μM FCCP, 1 μM rotenone and 1 μM antimycin A.
FIGS. 6A and 6B show the inhibitory effect of isoplumbagin on mitochondrial function and complex IV activity of oral squamous cell carcinoma cells (OC3-IV2). Oxygen consumption rate (OCR) of OC3-IV2 cells treated with DMSO (as control) or 2.5 μM isoplumbagin were measured by Oroboros instruments (FIG. 6A). […] OC3-IV2 cells treated with DMSO or 2.5 μM isoplumbagin were permeabilized with 5 μM digitonin (Dig) and added indicated substrates and inhibitors, and then mitochondria complex I/IV activity were determined by Oroboros instruments (FIG. 6B). Glu/Mal: glutamate (10 mM) and malate (2 mM), ADP (5 mM), Omy: oligomycin (0.5 μM), FCCP (0.5 nM), Rot: rotenone (1 μM), Ama: antimycin A (2 μM), TMPD: tetramethyl-p-phenylenediamine (0.1 mM), Asc: ascorbate (0.4 mM) and NaN3 5 mM. Data from three independent experiments are presented as mean ±SEM (*P<0.05, paired Student's t-test).

[2] = tested on: human cervical cancer cells (Hela); test: Boyden chamber invasion assay, Hela; type: cell-based; settings: 2.5, 5 and 10 μM, 24 h, dose dependency (FIG. 2E)
Protocol: Cells were harvested by […] and resuspended in a serum-free medium with 0.1% BSA. Then, […] of cell suspension (2×10^5 cells) was seeded into the upper insert of SPLInsert with Polyethylene terephthalate (PET) membrane (pore size: 8.0 μm) (SPL Lifesciences, Korea) pre-coated with matrigel (BD Biosciences, San Jose, Calif.). The bottom well of 24-well plate of SPLInsert was filled with cell medium containing 10% FBS with different concentrations of isoplumbagin (5, 7.5 and 10 μM, Experimental group of oral squamous cell carcinoma cells (OC3-IV2); 2.5, 5 and 10 μM, Experimental groups of human primary glioblastoma cells (U87), human non-small cell lung carcinoma cells (H1299), human prostate cancer cells (PC3) and human cervical cancer cells (Hela)) or without isoplumbagin (DMSO added). […] Number of cells was counted using Image J. Relative invasion ability was calculated as cell number per area.
FIGS. 2A-2E show the inhibitory effect of different doses of isoplumbagin on invasion for oral squamous cell carcinoma cells (OC3-IV2), human primary glioblastoma cells (U87), human non-small cell lung carcinoma cells (H1299), prostate cancer cells (PC3) and cervical cancer cells (Hela) assessed with the Boyden chamber assays. *Compared with solvent control (DMSO). […]

`CC1=CC(=O)c2cccc(O)c2C1=O` [isoplumbagin, 5-hydroxy-3-methyl-1,4-naphthoquinone] was tested, and the “substrate of NQO1 (reduction with NADH and WST1, absorbance at 450 nm)” value (NQO1) was “substrates of NQO1”, the “mitochondrial function (oxygen consumption rate)” value [1] was “can reduce mitochondrial function” and the “cancer cells migrating through the membrane (invasion)” value [2] was “decrease significantly”.
